# Key:
# [1] = Acute toxicity (LD50, mortality one week after administration, Litchfield-Wilcoxon; autopsy after oral administration); type: in vivo, ICR-JCL female mice; conditions: for LD50 at 168 h: mouse, in vivo, mice, 10 tested, one week after administration
# Source text: Ortho-methoxycinnamaldehyde was suspended in a mixed sulution of 1 part of Tween (mfd. Atlas Powder Co.) and 2 parts of a physiological salt solution. Commercially available ICR-JCL female mice (with a body weight of 22±1 g) were used for the toxicity tests, in which the mice were divided into groups, one being subjected to the percutaneous administration (p.c.) and the other group subjected to the oral administration (p.o.) and, one week after the administration their mortality was observed.
# Trichophyton rubrum = assay: Antimicrobial spectrum, minimum growth inhibiting concentration (MIC); type: cell-based; conditions: 72 h, Sabouraud's medium pH 5 to 6, 25° C., 3 days
# Experimental: (§1) The antimicrobial spectrum was determined using Sabouraud's medium. Three hundred milligrams of o-methoxycinnamaldehyde was dissolved in 15 ml of methanol and diluted to give solutions with different concentrations. An aliquot of 0.1 ml of the solutions was charged into a test tube. Each 10 ml of the sterilized Sabouraud's medium of pH of 5 to 6 was charged into each of the above-mentioned test tube and well mixed with the solution of the present substance. A variety of microbial species were provided and each species was suspended in a physiological salt solution in an amount of 10^5 /ml.
# Staphylococcus aureus = assay: as above; type: cell-based; conditions: 72 h, Sabouraud's medium pH 5 to 6, 25° C., 3 days
# Experimental: as §1
# Microsporum canis = assay: as above; type: cell-based; conditions: 72 h, Sabouraud's medium pH 5 to 6, 25° C., 3 days
# Experimental: as §1
# Aspergillus fumigatus = assay: as above; type: cell-based; conditions: 72 h, Sabouraud's medium pH 5 to 6, 25° C., 3 days
# Experimental: as §1
# [2] = test system: Trichophyton mentagrophytes; assay: as above; type: cell-based; conditions: 72 h, Sabouraud's medium pH 5 to 6, 25° C., 3 days
# Experimental: as §1
# Aspergillus niger = assay: as above; type: cell-based; conditions: 72 h, Sabouraud's medium pH 5 to 6, 25° C., 3 days
# Experimental: as §1
# Escherichia coli = assay: as above; type: cell-based; conditions: 72 h, Sabouraud's medium pH 5 to 6, 25° C., 3 days
# Experimental: as §1
# Candida albicans = assay: as above; type: cell-based; conditions: 72 h, Sabouraud's medium pH 5 to 6, 25° C., 3 days
# Experimental: as §1
# Cryptococcus neoformans = assay: as above; type: cell-based; conditions: 72 h, Sabouraud's medium pH 5 to 6, 25° C., 3 days
# Experimental: as §1
# Microsporum gypseum = assay: as above; type: cell-based; conditions: Nannizzia gypsea, 72 h; Sabouraud's medium pH 5 to 6, 25° C., 3 days
# Experimental: as §1
# [3] = Antimicrobial activity of synthesized versus extracted substance; conditions: synthesis method vs extraction method
# [4] = Subacute toxicity, daily administration over 3 months; type: in vivo, mice; conditions: every day over 3 months, oral 100 mg/kg and percutaneous 250 mg/kg, respectively
# Experimental: Further, in order to determine the subacute toxicity of the present substance, it was administered to mice every day over 3 months via an oral and a percutaneous routes using the dosage of 100 mg/kg and 250 mg/kg, respectively.
# Solubility = type: physicochemical
# [5] = one week after oral administration
structure (smiles),measurement,setting,value
COc1ccccc1C=CC=O [o-methoxycinnamaldehyde],LD50 at 168 h,"[1]; topical or ocular, percutaneous (p.c.)",8670 mg/kg
same,LD50 at 168 h,[1]; oral (p.o.),4430 mg/kg
same,Autopsy findings in appearance and visceral observation,[1]; [5],no specific abnormal finding was obtained in appearance and also in visceral observation
same,Toxic symptom,[1]; [5],no specific toxic sympton was observed
same,MIC,Trichophyton rubrum,12.5 µg/mL
same,MIC,Staphylococcus aureus,50 µg/mL
same,MIC,Microsporum canis,6.25 µg/mL
same,MIC,Aspergillus fumigatus,100 µg/mL
same,MIC,[2],12.5 µg/mL
same,MIC,Aspergillus niger,200 µg/mL
same,MIC,Escherichia coli,60 µg/mL
same,MIC,Candida albicans,50 µg/mL
same,MIC,Cryptococcus neoformans,12.5 µg/mL
same,MIC,Microsporum gypseum,25 µg/mL
same,Antimicrobial activity of substance obtained by synthesis compared with that obtained by extraction,[3],identical in physical properties and antimicrobial activity to that obtained from the extraction method
same,Death or abnormal symptom (subacute toxicity),[4],neither death nor abnormal symptom was observed
same,"Solubility in methanol, ethanol, acetone, benzene and chloroform","Solubility; methanol, ethanol, acetone, benzene and chloroform","Soluble in methanol, ethanol, acetone, benzene and chloroform"
same,Solubility in water,Solubility; water,insoluble in water

# — US4202877A, “Antidermatomycotic agent” (Kureha Kagaku Kogyo Kabushiki Kaisha, priority 1977, dated 1980)
